Assay results: patent US10633394B2, “Heterocyclic derivatives and use thereof” (C & C RESEARCH LABORATORIES, priority 2014, dated 2020)

Key:
Assay type in all cases: cell-based
STAT3 = molecular target: T1, STAT3 (Homo sapiens, UniProt P40763); test: STAT3 reporter gene (luciferase) assay in LNCaP stable cell line stimulated with IL-6; details: LNCaP stable cell line (pSTAT3-TA-luc), IL-6 10 ng/mL, 24 hours
T1 construct: plasmid pSTAT3-TA-luc), which contains a stably operating STAT3 promoter; endogenous in cells
T1 sequence (P40763 whole entry): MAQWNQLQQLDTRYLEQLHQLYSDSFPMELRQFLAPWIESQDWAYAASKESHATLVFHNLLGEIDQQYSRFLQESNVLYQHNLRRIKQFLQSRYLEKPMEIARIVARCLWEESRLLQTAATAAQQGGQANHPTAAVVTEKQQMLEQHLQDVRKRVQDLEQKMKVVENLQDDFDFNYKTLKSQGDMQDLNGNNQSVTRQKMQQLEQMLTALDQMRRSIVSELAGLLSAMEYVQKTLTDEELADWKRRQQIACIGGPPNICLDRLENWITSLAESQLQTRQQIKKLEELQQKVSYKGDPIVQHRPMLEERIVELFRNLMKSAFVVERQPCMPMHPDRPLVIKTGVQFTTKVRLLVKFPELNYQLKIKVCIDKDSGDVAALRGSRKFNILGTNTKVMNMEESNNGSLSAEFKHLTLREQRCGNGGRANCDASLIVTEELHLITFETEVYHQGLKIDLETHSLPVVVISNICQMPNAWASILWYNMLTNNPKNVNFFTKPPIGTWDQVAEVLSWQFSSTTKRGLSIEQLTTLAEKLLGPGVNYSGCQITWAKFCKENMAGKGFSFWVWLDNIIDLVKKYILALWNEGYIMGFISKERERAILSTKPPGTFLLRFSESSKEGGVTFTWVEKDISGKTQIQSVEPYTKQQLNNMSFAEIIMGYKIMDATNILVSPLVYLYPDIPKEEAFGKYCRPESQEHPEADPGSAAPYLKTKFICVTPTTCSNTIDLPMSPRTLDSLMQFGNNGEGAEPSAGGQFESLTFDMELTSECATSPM
Summary of the method: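 LNCaP cells stably carrying pSTAT3-TA-luc, in RPMI1640 with 3% DCC-FBS, cultured 24 hours, then treated with compound at various concentrations plus IL-6 (final 10 ng/mL) for 24 hours at 37° C. Luciferase measured in lysates; parallel plate read for viability by CellTiter-Glo.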

STAT1 = molecular target: T2, STAT1 (Homo sapiens, UniProt P42224); test: STAT1 reporter gene (luciferase) assay in U2OS stable cell line stimulated with IFN-γ; details: U2OS stable cell line (pGL4-STAT1-TA-luc), IFN-γ 50 ng/mL, 8 hours; read-out: IC50 (μM) pSTAT1
T2 construct: pGL4-STAT1-TA-luc), which contains a stably operating STAT1 promoter; endogenous in cells
T2 sequence (P42224 1-750): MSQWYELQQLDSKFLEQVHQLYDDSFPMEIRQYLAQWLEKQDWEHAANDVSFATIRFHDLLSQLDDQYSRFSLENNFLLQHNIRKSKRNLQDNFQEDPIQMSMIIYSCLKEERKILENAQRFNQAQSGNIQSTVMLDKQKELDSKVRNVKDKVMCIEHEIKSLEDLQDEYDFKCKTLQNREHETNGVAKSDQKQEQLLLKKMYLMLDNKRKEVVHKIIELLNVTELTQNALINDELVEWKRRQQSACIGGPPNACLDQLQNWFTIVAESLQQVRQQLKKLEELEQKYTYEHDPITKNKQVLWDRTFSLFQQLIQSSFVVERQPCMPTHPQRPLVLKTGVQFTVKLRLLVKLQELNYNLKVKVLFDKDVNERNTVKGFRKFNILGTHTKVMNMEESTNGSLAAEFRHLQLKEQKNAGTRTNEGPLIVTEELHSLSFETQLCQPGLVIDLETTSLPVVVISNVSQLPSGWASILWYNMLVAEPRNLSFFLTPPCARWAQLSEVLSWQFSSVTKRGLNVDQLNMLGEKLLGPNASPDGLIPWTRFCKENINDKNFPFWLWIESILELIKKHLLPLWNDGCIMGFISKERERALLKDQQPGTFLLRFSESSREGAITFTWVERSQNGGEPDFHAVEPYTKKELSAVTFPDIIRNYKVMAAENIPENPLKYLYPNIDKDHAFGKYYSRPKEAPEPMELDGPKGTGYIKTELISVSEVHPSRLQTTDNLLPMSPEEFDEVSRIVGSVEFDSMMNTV
Description: 1-2) Experiment on the Inhibition of STAT1 Activity
A human osteosarcoma cell line (U2OS stable cell line; pGL4-STAT1-TA-luc), which contains a stably operating STAT1 promoter, was cultured in McCoy 5′A medium (Cat No. 16600, Life Technologies) containing 10% FBS (Cat No. SH30396, Thermo Scientific) and 1000 μg/mL G418 solution (Cat No. 04 727 894 001, Roche). The reporter gene assay using U2OS stable cell line was performed in McCoy 5′A medium containing 10% FBS without G-418 solution. U2OS stable cells were plated in two (2) white 96-well plates with 25,000 cells/50 μL in each well. […] The plates were observed under microscope and drug precipitation and particular findings were investigated and recorded.
The luciferase assay and the cell viability assay were performed respectively with one of two plates. […] After shaking the plate for 30 minutes, luciferase activities of each well were measured in a PHERAstar™ microplate reader (BMG LABTECH) using a luciferase assay system (Cat No. E1501, Promega). For the cell viability assay, the 96-well plate was placed at room temperature for 30 minutes, added with 20 μL/well of CellTiter-Glo solution (Cat No. G7573, Promega), and shaken for 10 minutes in order to measure cytotoxicity caused by the compounds listed in Examples with a PHERAstar™ microplate reader (BMG LABTECH). […]

NCI-N87 = test: Cell growth inhibition assay (CellTiter-Glo), stomach cancer cell line NCI-N87; details: NCI-N87 cells, 96 hours
Summary of the method: (§1)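 Cells seeded at 5,000/well (NCI-N87) or 10,000/well (MDA-MB-468) and exposed to serially diluted compounds for 96 h at 37 °C, NCI-N87 under 5% CO2 and MDA-MB-468 in air. Viability read by CellTiter-Glo luminescence; cell-free wells served as negative control and 0.1% DMSO wells as positive control.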

MDA-MB-468 = test: Cell growth inhibition assay (CellTiter-Glo), breast cancer cell line MDA-MB-468; details: MDA-MB-468 cells, 96 hours
Summary of the method: as §1

IC50 (STAT3) | IC50 (STAT1) | IC50 (NCI-N87) | IC50 (MDA-MB-468) | Substance
0.76 µM | > 50 µM | 0.72 µM | – | tert-butyl 7-((2-chloro-6-(4-chlorophenoxy)pyridin-4-yl)carbamoyl)-1-(methylsulfonyl)-2,3-dihydrothieno[2,3-g]quinoxaline-4(1H)-carboxylate [Example 5]
0.0062 µM | > 50 µM | 0.0095 µM | 0.0047 µM | N-(2-chloro-6-(5-chloro-2-methylphenoxy)pyridin-4-yl)-4-(methylsulfonyl)-3,4-dihydro-2H-thieno[3,2-g]chromene-7-carboxamide [Example 37]
